Results: ChEMBL document CHEMBL1142285, “Indeno[1,2-c]isoquinolines as enhancing agents on all-trans retinoic acid-mediated differentiation of human myeloid leukemia cells” (2008)

Tests used:
Type in all cases: functional, cell-based
[1] = system: NB-4; assay: Induction of differentiation in human NB4 cells after 72 hrs by NBT assay
[2] = system: HL-60; assay: Antiproliferative activity against human HL60 cells after 72 hrs by MTT assay
[3] = system: NB-4; assay: Antiproliferative activity against human NB4 cells after 72 hrs by MTT assay
[4] = system: HL-60; assay: Induction of differentiation in human HL60 cells after 72 hrs by NBT assay

Measured: Activity

COc1ccc(Cn2c3c(c4cc(C)ccc4c2=O)C(C)c2ccccc2-3)cc1 (centres undefined)
active: [1] Dose-dependent effect | [2] Dose-dependent effect | [3] Dose-dependent effect | [4] Dose-dependent effect
